experiment: Human HepG2 cell viability assay in 384 well format; format: toxicity, cell-based; parameters: dose 125 nL, time 70.5 hour; concentration not given beside the values; details: HepG2 cells, read-out: Inhibition

Structure (SMILES)	cytotoxicity at 70.5 h [%]
Cc1cnn(CC2CN(Cc3nc(-c4cccnc4)no3)CCO2)c1 (centres undefined)	-0.171
CC(C)c1nc2n(n1)CC(NCc1nnc(C3CC3)o1)CC2 (centres undefined)	0.876
CCc1nnc(CNC2CCc3nc(C(C)C)nn3C2)o1 (centres undefined)	0.155
OCCN1CCN(CC(O)c2ccc(OC(F)(F)F)cc2)CC1 (centres undefined)	-2.1
Cc1nn(C)c(C)c1C1CCCN1CC(=O)Nc1ccc(Cl)cn1 (centres undefined)	2.19
Cc1cnn(CCC(=O)N2CCCC(c3nc(C)c(C)s3)C2)c1 (centres undefined)	1.92
Cc1cc(C)n(CCC(=O)N2CCCC(c3cc(C(N)=O)[nH]n3)C2)n1 (centres undefined)	29.3
Cc1ccccc1CCC(=O)N1CCCC(c2cc(C(N)=O)[nH]n2)C1 (centres undefined)	6.15
COCCOc1ccccc1C(=O)N1CCCC(c2cc(C)[nH]n2)C1 (centres undefined)	0.71
CC(NC(=O)Nc1cccnc1N1CCCC1)c1ccn(C)c1 (centres undefined)	25
CCCC(=O)N1CCN(CC(O)COCC)CC1 (centres undefined)	1.27
Cc1ccc(N2CCCC(NCc3ccc4c(c3)CCO4)C2)nn1 (centres undefined)	4.47
Cc1cnn(CCC(=O)N2CCCC(c3ccn[nH]3)C2)c1 (centres undefined)	-1.8
CC(=O)NCCNC(=O)CN1CCCC1c1c(C)nn(C)c1C (centres undefined)	25.7
CCOCC(O)CN1CCN(C(=O)C2CCC2)CC1 (centres undefined)	-3.91
CN(C)c1ncccc1CNC(=O)NCCN(C)C1CCCC1	-0.0535
CN(Cc1coc(-c2ccccc2)n1)C1CCCN(c2cccnn2)C1 (centres undefined)	-7.45
CC(C)n1cnnc1C1CCCN(C(=O)COCc2ccccc2)C1 (centres undefined)	-5.17
Cc1nc(C)n(C2CCCN(C(=O)Cc3csc(C(C)C)n3)C2)n1 (centres undefined)	-3.36
CN1N=C(C(=O)N2CCCC(n3ccnc3)C2)CCC1=O (centres undefined)	-7.88

Structure (SMILES)	cytotoxicity at 70.5 h [%]
C1CC(c2noc(C3CC3)n2)N(Cc2nc(C3CC3)no2)C1 (centres undefined)	-10.7
CC(C)c1nccn1C1CCCN(C(=O)C2=NN(C)C(=O)CC2)C1 (centres undefined)	-10.1
COc1cccc(CC(=O)N2CCCC(c3nncn3C)C2)c1 (centres undefined)	-12.3
Cc1cc(NC(=O)NCc2cccnc2OC(C)C)no1	-0.0866
CS(=O)(=O)NCC1CCCN(C(=O)c2cccc(F)c2)C1 (centres undefined)	-6.44
CC(Cn1cccn1)NC(=O)N1CCCN(Cc2cccs2)CC1 (centres undefined)	-5.76
COc1cccc(CCC(=O)N2CCCC(c3nncn3C)C2)c1 (centres undefined)	-7.27
CC(Cn1cccn1)NC(=O)N1CCN(Cc2ccsc2)CC1 (centres undefined)	-1.89
O=C(Cc1c[nH]c2ccccc12)N1CCC(Nc2ccccc2)CC1	-3.37
CCCc1nc(C)c(C(=O)NCCNc2ncccc2C#N)s1	0.537
Cc1nc(C(C)(C)C)sc1C(=O)NCCNc1ncccc1C#N	-7.48
Cc1ncc(C(=O)NCCNc2ncccc2C#N)s1	-0.109
Cc1nc(C)c(C(=O)NCCNc2ncccc2C(F)(F)F)s1	-7.63
COc1ccc(F)cc1C(=O)N1CCCC(CNS(C)(=O)=O)C1 (centres undefined)	1.51
CC(C)Oc1ncccc1CNC(=O)c1ccccn1	-2.17
Cc1occc1CNC(=O)NCCN(C)C1CCCC1	-0.13
Cc1noc(CN2CCCC2c2noc(C3CC3)n2)n1 (centres undefined)	20.7
CCCc1nc(CN2CCc3c(ncn3C3CC3)C2)cs1	-5.23
CCc1n[nH]c(C2CN(C(=O)c3cnc(C)nc3CC)CCO2)n1 (centres undefined)	-8.34
Cc1nc(C2CCCN2C(=O)Cn2cncn2)no1 (centres undefined)	-9.87

Structure (SMILES)	cytotoxicity at 70.5 h [%]
CC(NC(=O)COCC(F)(F)F)c1nnc2n1CCCCC2 (centres undefined)	-16.3
O=C(NCCn1ccnc1)N1CCN(Cc2ccco2)CC1	-3.81
c1ccc(-n2cc(CN3CCCC3Cn3cccn3)nn2)cc1 (centres undefined)	-10.7
CCc1nc(CN2CCc3c(ncn3C3CC3)C2)cs1	-17
CCOc1ccc(C(=O)N2CCCC(n3ccnc3C)C2)cc1OC (centres undefined)	-7.46
CCc1n[nH]c(C2CN(C(=O)c3ncoc3CC)CCO2)n1 (centres undefined)	-13.4
CCOc1ccc(NC(=O)NCc2cccnc2OCC)cc1	-9.72
Cn1ccc(C(=O)NCc2ccc(CN3CCCCC3)cc2)cc1=O	-12
COc1ncccc1CNC(=O)Nc1ccc(N(C)C)nc1	-12.5
Cc1noc(C(C)C)c1C(=O)NCCCN1CCCCCC1=O	-7.03
CN1CCCN(C(=O)NCCOc2ccc3c(c2)OCO3)CC1	-2.86
NC(=O)C1CCN(C(=O)NCCOc2ccc3c(c2)OCO3)C1 (centres undefined)	-8.31
CC(=O)N1CCN(CC(C)(O)c2cccc(C(F)(F)F)c2)CC1 (centres undefined)	-8.81
Cc1cnn(CC(C)NCc2csc(-c3ccco3)n2)c1 (centres undefined)	4.15
COC(=O)C(c1cc(F)ccc1F)N(C)C(=O)c1cccnc1O (centres undefined)	0.116
Cc1cc(C)n(CC2CCCN2C(=O)c2ccc(C(N)=O)cn2)n1 (centres undefined)	-1.95
Cc1cc(C(=O)N2CCN(C(=O)Cc3ccccn3)CC2)c(C)s1	0.259
Cc1nn(C)c(C)c1CNCc1ccnc(N2CCOCC2)c1	31.5
CC(=O)N1CCCN(C(=O)NCCc2cc(Cl)cc(Cl)c2)CC1	-6.77
